The IC50 is the point on the concentration scale where inhibition reaches its midpoint.

In the experiment the target is Autotaxin (Homo sapiens (Human), UniProt Q13822). The experiment in a line: Autotaxin LPC Cascade Assay. The format is biochemical. The settings on record: Autotaxin 5 nM, LPC 100 μM, choline oxidase/HRP/Ampliflu Red fluorescence read-out, 2% DMSO, RT; read-out: IC50 ATX Activity. The procedure, abridged:
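Choline liberated from LPC by autotaxin during 1 h, after a 10-min RT compound preincubation, was converted through choline oxidase/HRP to a fluorescent Ampliflu Red product.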
Take `CC(C)[C@@H](NC(=O)c1cc(C(F)(F)F)ccc1F)C(=O)N1CCC2(CC1)C(=O)N(C)[C@H](C)N2c1ccc(C(=O)O)cc1` [Example 212, 4-((R)-8-((R)-2-(2-Fluoro-5-(trifluoromethyl)benzamido)-3-methylbutanoyl)-2,3-dimethyl-4-oxo-1,3,8-triazaspiro[4.5]decan-1-yl)benzoic Acid]: the IC50 was under 500 nM. Regarding `CC(C)[C@@H](NC(=O)c1cc(C(F)(F)F)ccc1F)C(=O)N1CCC2(CC1)C(=O)N(C)[C@@H](C)N2c1ccc(C(=O)O)cc1` [Example 213, 4-((S)-8-((R)-2-(2-Fluoro-5-(trifluoromethyl)benzamido)-3-methylbutanoyl)-2,3-dimethyl-4-oxo-1,3,8-triazaspiro[4.5]decan-1-yl)benzoic Acid], the IC50 is under 500 nM. To `CC(C)[C@@H](NC(=O)c1cc(C(F)(F)F)ccc1F)C(=O)N1CCC2(CC1)C(=O)N(C)CN2c1ccc2[nH]ncc2c1` [Example 214, (R)—N-(1-(1-(1H-Indazol-5-yl)-3-methyl-4-oxo-1,3,8-triazaspiro[4.5]decan-8-yl)-3-methyl-1-oxobutan-2-yl)-2-fluoro-5-(trifluoromethyl)benzamide] belongs under 500 nM; to `CCc1ccc(F)c(C(=O)N[C@@H](C(=O)N2CCC3(CC2)C(=O)N(C)CN3c2ccc3[nH]ncc3c2)C(C)C)c1` [Example 215, (R)—N-(1-(1-(1H-Indazol-5-yl)-3-methyl-4-oxo-1,3,8-triazaspiro[4.5]decan-8-yl)-3-methyl-1-oxobutan-2-yl)-5-ethyl-2-fluorobenzamide], under 500 nM.

With `CCc1ccc(F)c(C(=O)N[C@@H](C(=O)N2CCC3(CC2)C(=O)N(C)CN3c2ccc3nc[nH]c3c2)C(C)C)c1` [Example 216, (R)—N-(1-(1-(1H-Benzo[d]imidazol-6-yl)-3-methyl-4-oxo-1,3,8-triazaspiro[4.5]decan-8-yl)-3-methyl-1-oxobutan-2-yl)-5-ethyl-2-fluorobenzamide], the IC50 is under 500 nM. Turning to `Cc1cccc(C(=O)N[C@@H](C(=O)N2CCC3(CC2)COC(=O)N3c2ccccc2)C(C)C)c1` [Example 217, (R)-3-Methyl-N-(3-methyl-1-oxo-1-(2-oxo-1-phenyl-3-oxa-1,8-diazaspiro[4.5]decan-8-yl)butan-2-yl)benzamide], the IC50 was at least 1000 nM.

On to `CC(C)[C@@H](NC(=O)c1cc(C(F)(F)F)ccc1F)C(=O)N1CCC2(CC1)C(=O)N(C)CN2c1ccc(NC2COC2)cc1` [Example 218, (R)-2-Fluoro-N-(3-methyl-1-(3-methyl-1-(4-(oxetan-3-ylamino)phenyl)-4-oxo-1,3,8-triazaspiro[4.5]decan-8-yl)-1-oxobutan-2-yl)-5-(trifluoromethyl)benzamide], for which the IC50 is under 500 nM.

In the case of `COC1CC(CN2C(=O)N(C)C(=O)C23CCN(C(=O)[C@H](NC(=O)c2cc(C(F)(F)F)ccc2F)C(C)C)CC3)C1` (stereo partly drawn) [Example 219, (R)-2-Fluoro-N-(1-(1-((3-methoxycyclobutyl)methyl)-3-methyl-2,4-dioxo-1,3,8-triazaspiro[4.5]decan-8-yl)-3-methyl-1-oxobutan-2-yl)-5-(trifluoromethyl)benzamide], the IC50 is at least 1000 nM. On to `CC(C)[C@@H](NC(=O)c1cc(C(F)(F)F)ccc1F)C(=O)N1CCC2(CC1)C(=O)N(C)CN2c1ccc(-c2nc[nH]n2)cc1` [Example 220, (R)—N-(1-(1-(4-(1H-1,2,4-Triazol-3-yl)phenyl)-3-methyl-4-oxo-1,3,8-triazaspiro[4.5]decan-8-yl)-3-methyl-1-oxobutan-2-yl)-2-fluoro-5-(trifluoromethyl)benzamide], for which the IC50 is under 500 nM. With `COC(=O)c1ccc(N2C(=O)N(C)C(=O)C23CCN(C(=O)[C@H](NC(=O)c2cc(C(F)(F)F)ccc2F)C(C)C)CC3)cc1` [Example 221, (R)-Methyl-4-(8-(2-(2-fluoro-5-(trifluoromethyl)benzamido)-3-methylbutanoyl)-3-methyl-2,4-dioxo-1,3,8-triazaspiro[4.5]decan-1-yl)benzoate], the IC50 was under 500 nM. For `CC(C)[C@@H](NC(=O)c1cc(C2CC2)ccc1F)C(=O)N1CCC2(CC1)C(=O)N(C)C(=O)N2c1ccc(C(=O)O)cc1` [Example 222, (R)-4-(8-(2-(5-Cyclopropyl-2-fluorobenzamido)-3-methylbutanoyl)-3-methyl-2,4-dioxo-1,3,8-triazaspiro[4.5]decan-1-yl)benzoic Acid] the value was under 500 nM; for `CC(C)[C@@H](NC(=O)c1cc(C(F)(F)F)ccc1F)C(=O)N1CCC2(CC1)C(=O)N(C)C(=O)N2c1ccc(C(=O)O)cc1` [Example 223, (R)-4-(8-(2-(2-Fluoro-5-(trifluoromethyl)benzamido)-3-methylbutanoyl)-3-methyl-2,4-dioxo-1,3,8-triazaspiro[4.5]decan-1-yl)benzoic Acid], under 500 nM.

As for `CC(C)[C@@H](NC(=O)c1cc(C(F)(F)F)ccc1F)C(=O)N1CCC2(CC1)C(=O)N(C)C(=O)N2c1ccc(-c2nn[nH]n2)cc1` [Example 224, (R)—N-(1-(1-(4-(2H-Tetrazol-5-yl)phenyl)-3-methyl-2,4-dioxo-1,3,8-triazaspiro[4.5]decan-8-yl)-3-methyl-1-oxobutan-2-yl)-2-fluoro-5-(trifluoromethyl)benzamide], the IC50 is under 500 nM. To `CC(C)[C@@H](NC(=O)c1cc(OC(F)(F)F)ccc1F)C(=O)N1CCC2(CC1)C(=O)N(C)C(=O)N2c1ccc(-c2nn[nH]n2)cc1` [Example 225, (R)—N-(1-(1-(4-(2H-Tetrazol-5-yl)phenyl)-3-methyl-2,4-dioxo-1,3,8-triazaspiro[4.5]decan-8-yl)-3-methyl-1-oxobutan-2-yl)-2-fluoro-5-(trifluoromethoxy)benzamide] belongs under 500 nM. Consider `CC(C)[C@@H](NC(=O)c1cc(OC(F)F)ccc1F)C(=O)N1CCC2(CC1)C(=O)N(C)C(=O)N2c1ccc(-c2nn[nH]n2)cc1` [Example 226, (R)—N-(1-(1-(4-(2H-Tetrazol-5-yl)phenyl)-3-methyl-2,4-dioxo-1,3,8-triazaspiro[4.5]decan-8-yl)-3-methyl-1-oxobutan-2-yl)-5-(difluoromethoxy)-2-fluorobenzamide], for which the IC50 was under 500 nM. For `CC(C)[C@@H](NC(=O)c1cc(C(F)(F)F)ccc1F)C(=O)N1CCC2(CC1)C(=O)N(C)CN2c1ccc(-c2nn[nH]n2)cc1` [Example 227, (R)—N-(1-(1-(4-(2H-Tetrazol-5-yl)phenyl)-3-methyl-4-oxo-1,3,8-triazaspiro[4.5]decan-8-yl)-3-methyl-1-oxobutan-2-yl)-2-fluoro-5-(trifluoromethyl)benzamide], the IC50 was under 500 nM.

Regarding `CC(C)[C@@H](NC(=O)c1ccccn1)C(=O)N1CCC2(CC1)C(=O)N(C)C(=O)N2c1ccc2[nH]ncc2c1` [Example 228, (R)—N-(1-(1-(1H-Indazol-5-yl)-3-methyl-2,4-dioxo-1,3,8-triazaspiro[4.5]decan-8-yl)-3-methyl-1-oxobutan-2-yl)picolinamide], the IC50 is at least 1000 nM. Turning to `CC(C)[C@@H](NC(=O)c1cccnc1)C(=O)N1CCC2(CC1)C(=O)N(C)C(=O)N2c1ccc2[nH]ncc2c1` [Example 229, (R)—N-(1-(1-(1H-Indazol-5-yl)-3-methyl-2,4-dioxo-1,3,8-triazaspiro[4.5]decan-8-yl)-3-methyl-1-oxobutan-2-yl)nicotinamide], the IC50 was at least 1000 nM. Consider `CC(C)[C@@H](NC(=O)C1CCCCC1)C(=O)N1CCC2(CC1)C(=O)N(C)C(=O)N2c1ccc2[nH]ncc2c1` [Example 230, (R)—N-(1-(1-(1H-Indazol-5-yl)-3-methyl-2,4-dioxo-1,3,8-triazaspiro[4.5]decan-8-yl)-3-methyl-1-oxobutan-2-yl)cyclohexanecarboxamide], for which the IC50 was at least 1000 nM. For `CC(C)[C@@H](NC(=O)c1ccncc1)C(=O)N1CCC2(CC1)C(=O)N(C)C(=O)N2c1ccc2[nH]ncc2c1` [Example 231, (R)—N-(1-(1-(1H-Indazol-5-yl)-3-methyl-2,4-dioxo-1,3,8-triazaspiro[4.5]decan-8-yl)-3-methyl-1-oxobutan-2-yl)isonicotinamide] the value was at least 1000 nM. `CC(C)[C@@H](NC(=O)C(C)(C)C)C(=O)N1CCC2(CC1)C(=O)N(C)C(=O)N2c1ccc2[nH]ncc2c1` [Example 232, (R)—N-(1-(1-(1H-Indazol-5-yl)-3-methyl-2,4-dioxo-1,3,8-triazaspiro[4.5]decan-8-yl)-3-methyl-1-oxobutan-2-yl)pivalamide]: the IC50 is at least 1000 nM.

`CC(C)[C@@H](NC(=O)c1ccccc1)C(=O)N1CCC2(CC1)C(=O)N(C)C(=O)N2c1ccc2[nH]ncc2c1` [Example 233, (R)—N-(1-(1-(1H-Indazol-5-yl)-3-methyl-2,4-dioxo-1,3,8-triazaspiro[4.5]decan-8-yl)-3-methyl-1-oxobutan-2-yl)benzamide]: the IC50 is at least 1000 nM. Turning to `CC(C)[C@@H](NC(=O)c1nccs1)C(=O)N1CCC2(CC1)C(=O)N(C)C(=O)N2c1ccc2[nH]ncc2c1` [Example 234, (R)—N-(1-(1-(1H-Indazol-5-yl)-3-methyl-2,4-dioxo-1,3,8-triazaspiro[4.5]decan-8-yl)-3-methyl-1-oxobutan-2-yl)thiazole-2-carboxamide], the IC50 is at least 1000 nM. For `CC(C)[C@@H](NC(=O)c1nc(C(F)(F)F)cs1)C(=O)N1CCC2(CC1)C(=O)N(C)C(=O)N2c1ccc2[nH]ncc2c1` [Example 235, (R)—N-(1-(1-(1H-Indazol-5-yl)-3-methyl-2,4-dioxo-1,3,8-triazaspiro[4.5]decan-8-yl)-3-methyl-1-oxobutan-2-yl)-4-(trifluoromethyl)thiazole-2-carboxamide], the IC50 is at least 1000 nM. Regarding `CC(C)[C@H](C(=O)N1CCC2(CC1)C(=O)N(C)C(=O)N2c1ccc2[nH]ncc2c1)N(C)C(=O)c1cc(C(F)(F)F)ccc1F` [Example 236, (R)—N-(1-(1-(1H-Indazol-5-yl)-3-methyl-2,4-dioxo-1,3,8-triazaspiro[4.5]decan-8-yl)-3-methyl-1-oxobutan-2-yl)-2-fluoro-N-methyl-5-(trifluoromethyl)benzamide], the IC50 is at least 1000 nM.
